Laboratory results from patent US7064141B1, “Method for preventing, treating or inhibiting development of simple retinopathy and preproliferative retinopathy” (Takeda Pharmaceutical Company Limited, priority 1999, dated 2006).

Tests used:
[1] = test system: Diabetic Rats; test: Retinal potential: latency of oscillatory potential peaks of diabetic rats; format: in vivo, rat; conditions: STZ-diabetic SHRSP rats
Procedure: (§1) • Compound 1: (±)-1-(cyclohexyloxycarbonyloxy) ethyl-2-ethoxy-1-[[2′-(1H-tetrazol-5-yl)biphenyl-4-yl]methyl]-1H-benzimidazole-7-carboxylate (Compound 1) Method: Streptozotocin (STZ) was intravenously injected at a dose of 30 mg/kg to 10-week old male rats (Stroke-Prone Spontaneously Hypertensive Rat:SHRSP). When 9 weeks had passed since the injection of STZ, the blood sugar values of the rats were measured. The rats were divided into 3 groups, that is, a group before the administration, a solvent-administered control group and an administered group with the compound 1 (3 mg/kg/day, p.o.). Four weeks after, the blood sugar values and the retinal potentials were measured, and then, the rats were killed by bleeding by discission of the aorta abdominalis under deep ether anesthetization so as to remove the eyeball. A suspension of the compound 1 in a 0.5% methylcellulose-containing physiological saline was orally administered to the rats once a day for 4 weeks. On the other hand, 23-week old SHRSP rats were used as an untreated group.
The retinal potential was measured by the following method. The subject animal was subjected to dark adaptation in a dark room for 90 to 120 minutes, and then, anesthetized with ketamine hydrochloride (50 mg/kg, i.m.) and immobilized with xylazine (2 mg/kg, i.m.). The limb and the head of the subject animal were fixed with a string. Mydriatic was dropped on the left eyeball to widen the pupil, and a contact lens type electrode was placed on the cornea using a contact lens-wearing auxiliary. A xenon lamp (1.2 joules) was set at a position 10 cm distant in the forward direction from the eye to be tested (the left eye), and light stimuli were controlled by a light stimulator (SLS-3100 manufactured by Nippon Koden K.K.). The retinal potential generated by light stimuli (0.5 Hz, 16 times) was amplified by a Neuropack (MEB-5100 manufactured by Nippon Koden K.K., Low cut 0.5 Hz, and sweeping time: 200 msec). The results were added and averaged. The latency of oscillatory potential peaks (O1, O2 and O3) was counted from the resultant waveforms.

[2] = test system: Retinal VEGF mRNA; test: Retinal VEGF mRNA of diabetic rats, semi-quantitative RT-PCR; format: in vivo, rat; conditions: STZ-diabetic SHRSP rats
Procedure: as §1, with “On the other hand, 23-week old SHRSP rats were used as an untreated group.” left out
VEGF mRNA in the retina was quantitatively determined as follows. […] The quantity of VEGF mRNA was measured from the extracted RNA by the semi-quantitative RT-PCR process (ABI PRISM 7700: Perkin Elmer) using two kinds of fluorescent probes (FAM: VEGF, and VIC: β-action). The quantity of VEGF mRNA was corrected by the quantity of β-action mRNA and calculated provided that the quantity of VEGF mRNA of SD rat retina was defined as 1.

[3] = 3 mg/kg/day p.o. for 4 weeks, n = 4, average ± standard deviation

CCOc1nc2cccc(C(=O)OC(C)OC(=O)OC3CCCCC3)c2n1Cc1ccc(-c2ccccc2-c2nnn[nH]2)cc1 (racemic) [Compound 1, (±)-1-(cyclohexyloxycarbonyloxy) ethyl-2-ethoxy-1-[[2′-(1H-tetrazol-5-yl)biphenyl-4-yl]methyl]-1H-benzimidazole-7-carboxylate]
Latency of oscillatory potential peak O1 [1, 3]: 23.81 ± 0.42 ms
Latency of oscillatory potential peak O2 [1, 3]: 32.88 ± 1.17 ms
Latency of oscillatory potential peak O3 [1, 3]: 43.39 ± 1.86 ms
Latency of oscillatory potential peaks O1, O2 and O3, in words ([1]; 3 mg/kg/day p.o., 4 weeks): latency was reduced in any of the O1, O2 and O3
Latency of oscillatory potential peak O1 compared with the control group, in words ([1]; 3 mg/kg/day p.o., 4 weeks, Dunnett's t Test): significant improvement
Retinal VEGF mRNA (VEGF mRNA of SD rat determined as 1) ([2]; 3 mg/kg/day p.o. for 4 weeks, n = 4, corrected by β-action mRNA, average ± standard deviation): 0.99 ± 0.14
Quantity of VEGF mRNA in the retinal tissue, in words ([2]; 3 mg/kg/day p.o., 4 weeks): significantly decreased
